Laboratory results published in patent US20040033941A1, “Immunosuppression using piceatannol and a calcineurin inhibitor” (priority 2003, published 2004).
Entries after “also recorded” stand apart in the source; their conditions may differ.

Columns and labels:
[1] = system: hearts from ACI rats transplanted into Lewis rats; assay: Heterotopic heart transplant, graft survival; format: in vivo, rat; conditions: at the specified dosages (30 mg/kg piceatannol, 2 mg/kg cyclosporin A)
Procedure: (§1) In vivo studies were conducted using piceatannol obtained from Peninsula Lab. […] We examined the ability of piceatannol/calcineurin mixtures to prolong graft survival. Donor organs from ACI rats were transplanted into Lewis rats.
Prior to transplantation, piceatannol (30 mg/kg) was administered intravenously for three days into one selection of Lewis rats via a catheter placed in the right jugular vein.
At day 3, hearts from ACI rats were heterotopically transplanted into the abdomen of the Lewis rats. […] Following transplantation, fascia and muscle were closed with absorbable suture and skin was closed with nylon.
After surgery animals were placed on a warm pad and observed until they awakened. The animals were then placed in cages in a warm environment with wood chip bedding, and provided rodent chow. To relieve pain, Buprenorphine was also given to the animal. Toxicity in animals was monitored by measuring the blood levels of creatinine and ALT, indicators of kidney and liver function, respectively. Drug administration then continued for an additional seven days after the transplant surgery (and was then discontinued).
In the case of heart transplants, rejection was considered complete when no heart beat was palpable with respect to the transplanted organ. This was confirmed by laparotomy and direct inspection.

[2] = system: kidneys from ACI rats transplanted into Lewis rats; format: in vivo
Procedure: as §1
In other experiments, kidneys from ACI rats were transplanted into Lewis rats. Drug administration continued for an additional seven days after transplant at the same levels. From day 8 through day 60 post-transplant administration continued, albeit with piceatannol reduced to 10 mg/kg/day. Thereafter, drug administration ceased.
Animals were anesthetized. The lower abdomen of the donor was shaved and surgically prepared and a long midline incision was made in the abdominal wall. The left kidney and left ureter, aorta, and vena cava were dissected, and suprarenal and gonadal veins ligated and cut. After ligating the suprarenal aorta and vena cava, a hole made in distal aorta and left kidney was flushed in situ with 3 ml of heparinized cold Euro-Collins' solution. The left kidney and left ureter were removed with an aortic cuff and vena cava patched and kept on ice.
After the lower abdomen of the recipient was shaved and surgically prepared, the recipient animal underwent a left nephrectomy via a long midline incision under inhalation anesthesia, and abdominal aoerta and vena cava were prepared for anastomosis. […]

[3] = system: transplanted organ; assay: In vivo use of piceatannol alone as an immunosuppressive
[4] = system: T and B cell activation; assay: T and B cell activation; format: cell-based; conditions: both in vitro and in vivo
[5] = system: Syk kinase; conditions: J. Oliver et al., J. Biol. Chem. 1994; mast cell/allergy studies; cited from earlier work

SMILES: Oc1cc(O)cc(/C=C/c2ccc(O)c(O)c2)c1 [piceatannol, 3,4,3′,5′-tetrahydroxy-trans-stilbene]
- prolongation of heart graft survival (in words) [1]: only minimal prolongation effect
- prolonging kidney allograft survival (in words) ([2]; piceatannol 30 then 10 mg/kg/day IV, CsA 2 mg/kg/day IM, day -3 to +60, rejection = serum creatinine over 2 mg/dl or death): not effective
- histological analysis of transplanted kidneys ([2]; single-agent groups, data not shown): signs of acute rejection
- tolerability / toxicity of piceatannol alone ([3]; 75 mg/kg of body weight per day): not well tolerated; also recorded: some toxicity was noted
- transplanted organ survival, piceatannol alone ([3]; in vivo use of piceatannol): prolongs transplanted organ survival
- T and B cell activation [4]: inhibits
- inhibition of Syk kinase [5]: very effective inhibitor
